Four compounds from ChEMBL document CHEMBL1201862, “PubChem BioAssay data set” (2004) can be followed below.

In assay [1] the target is Megakaryocyte-associated tyrosine-protein kinase (Homo sapiens, UniProt P42679). The class given is functional.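 Also: affinity measured as one member of a kinase panel (Navigating the Kinome) against MATK.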
For assay [2], the target named is Tyrosine-protein kinase JAK2 (Homo sapiens, UniProt O60674). The format is functional.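 Also: JAK2 tested as one member of a kinase panel.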
For assay [3], the target named is Serine/threonine-protein kinase TBK1 (Homo sapiens, UniProt Q9UHD2). Nature of the assay: Navigating the Kinome. Panel member name: TBK1. The class given is functional.
The target in assay [4] is Death-associated protein kinase 3 (Homo sapiens, UniProt O43293). The class given is functional.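 Also: measured as one member of a kinome-wide profiling panel.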
Assay [5] addresses Tyrosine-protein kinase BTK (Homo sapiens, UniProt Q06187). The class given is functional.
The target in assay [6] is Casein kinase I isoform alpha (Homo sapiens, UniProt P48729). The class given is functional.
In assay [7] the target is Casein kinase I isoform gamma-1 (Homo sapiens, UniProt Q9HCP0). The class given is functional.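 Also: measured as the CSNK1G1 member of a kinome profiling panel.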
For assay [8], the target named is Mitogen-activated protein kinase 13 (Homo sapiens, UniProt O15264). The class given is functional.
For assay [9], the target named is Protein kinase C gamma type (Homo sapiens, UniProt P05129). The format is functional.
Assay [10] deals with Proto-oncogene tyrosine-protein kinase Src (Homo sapiens, UniProt P12931). The format is functional.
The target in a further assay is Misshapen-like kinase 1 (Homo sapiens, UniProt Q8N4C8). The class given is functional.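 Also: kinome panel screen with MINK as the panel member.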
Assay [11] concerns the target Dual specificity tyrosine-phosphorylation-regulated kinase 1B (Homo sapiens, UniProt Q9Y463). Nature of the assay: Navigating the Kinome. Panel member name: DYRK1B. The class given is functional.
The target of assay [12] is Interleukin-1 receptor-associated kinase 1 (Homo sapiens, UniProt P51617). The class given is functional.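 Also: IRAK1 tested as one member of a kinome panel.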
The target in assay [13] is Interleukin-1 receptor-associated kinase 4 (Homo sapiens, UniProt Q9NWZ3). The class given is functional.
In assay [14] the target is Vascular endothelial growth factor receptor 3 (Homo sapiens, UniProt P35916). The format is functional.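 Also: value from a kinome-wide profiling panel, with FLT4 as the panel member.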
Assay [15] deals with Serine/threonine-protein kinase pim-2 (Homo sapiens, UniProt Q9P1W9). The class given is functional.
Assay [16] has as its target Receptor tyrosine-protein kinase erbB-4 (Homo sapiens, UniProt Q15303). The class given is functional.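 Also: ERBB4 member of a kinome-wide kinase profiling panel.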
In assay [17] the target is cAMP-dependent protein kinase catalytic subunit alpha (Homo sapiens, UniProt P17612). The class given is functional.
In assay [18] the target is Serine/threonine-protein kinase MRCK alpha (Homo sapiens, UniProt Q5VT25). The format is functional.
Assay [19] has as its target Serine/threonine-protein kinase BRSK1 (Homo sapiens, UniProt Q8TDC3). The format is functional.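 Also: measured within a kinome-wide kinase panel, with the target listed as KIAA1811.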
Assay [20] concerns the target Serine/threonine-protein kinase 3 (Homo sapiens, UniProt Q13188). The format is functional.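 Also: measured as one member of a kinome-wide kinase panel.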
The target in assay [21] is T1, RNA-binding protein pos-1 (Caenorhabditis elegans, UniProt G5EF15).
T1 sequence (G5EF15 whole entry): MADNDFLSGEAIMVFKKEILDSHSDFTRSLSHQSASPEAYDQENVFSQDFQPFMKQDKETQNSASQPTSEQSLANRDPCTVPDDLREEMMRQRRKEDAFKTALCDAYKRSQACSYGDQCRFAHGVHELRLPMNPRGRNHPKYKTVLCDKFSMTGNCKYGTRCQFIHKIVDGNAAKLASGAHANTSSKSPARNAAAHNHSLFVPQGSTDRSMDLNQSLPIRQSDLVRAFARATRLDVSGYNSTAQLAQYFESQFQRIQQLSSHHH
The assay is described as follows: inhibitors of POS-1/mex-3 RNA binding, dose response, biochemical, fluorescence polarization (AID 1964).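 Also: purified POS-1 fused to maltose binding protein made in E. coli; potency of compounds blocking POS-1 binding to fluorescent RNA.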 In general terms: Fluorescence polarisation rises when a labelled molecule tumbles more slowly, as on binding a larger partner.

The next assay concerns the target T2, Streptokinase A (Streptococcus pyogenes serotype M1, UniProt P10520).
T2 sequence (P10520 whole entry): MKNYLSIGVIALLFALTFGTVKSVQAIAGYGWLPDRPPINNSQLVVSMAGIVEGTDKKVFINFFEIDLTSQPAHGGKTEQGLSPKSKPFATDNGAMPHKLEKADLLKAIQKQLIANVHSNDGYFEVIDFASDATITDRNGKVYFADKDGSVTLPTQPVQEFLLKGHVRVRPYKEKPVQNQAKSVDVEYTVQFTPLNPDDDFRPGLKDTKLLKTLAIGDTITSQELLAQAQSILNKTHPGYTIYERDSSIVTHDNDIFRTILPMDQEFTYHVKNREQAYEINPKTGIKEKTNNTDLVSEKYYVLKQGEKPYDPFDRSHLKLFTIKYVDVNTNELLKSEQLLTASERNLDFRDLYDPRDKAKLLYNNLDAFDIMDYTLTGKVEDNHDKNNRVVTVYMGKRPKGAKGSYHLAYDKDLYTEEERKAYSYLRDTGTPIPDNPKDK
Nature of the assay: S. pyogenes streptokinase expression inhibitors, potency, dose response, plasminogen activation absorbance, OD405 (AID 1914).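 Also: secreted streptokinase activity via plasminogen activation per viability signal from cell pellet.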 The format is functional, Streptococcus pyogenes M1 GAS.

A further assay deals with Streptococcus. The assay is described as follows: Group A Streptococcus viability loss, dose response, counter-screen for streptokinase expression inhibitor project, luminescence, BacTiterGlo (AID 1915).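 Also: potency for reduction of bacterial viability or growth.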 The format is functional, organism-based. On the technique in general: Counterscreens check selectivity or assay interference.
A further assay concerns INS1. The assay is described as follows: beta cell apoptosis inhibitors, cytokine rescue, dose response, luminescence, retest (AID 449756).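 Also: cell death triggered by IL-1 beta plus TNF-alpha plus IFN-gamma mixture; protective hits raise ATP signal compared with cytokine alone wells.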 The settings on record: Rattus norvegicus. The class given is functional, cell-based.
Another assay relates to HEK293. The assay is described as follows: optical interference in Abeta FP readout, dose response, artefact control for IDE activator project, biochemical, fluorescence polarization (AID 588442). The class given is functional, cell-based. Conditions: Homo sapiens.
For assay [22], the target named is DNA repair protein RAD52 homolog (Homo sapiens, UniProt P43351). The class given is functional, biochemical.
A further assay deals with H4. Nature of the assay: Luminescence Cell-Based Dose Response HTS to Identify Activators of 5'UTR Stem-Loop Driven Prion Protein mRNA Translation in H4 Neuroglioblastoma Cells. [Related pubchem assays: 1829 (Project Summary), 1814 (Primary HTS)]. The settings on record: Homo sapiens. The class given is functional.
Assay [23] in a line: Luminescence Cell-Based Dose Confirmation to Identify Activators of 5'UTR Stem-Loop Driven Alpha-Synuclein mRNA Translation in H4 Neuroglioblastoma Cells. [Related pubchem assays: 1829 (Project Summary), 1814 (Primary HTS)]. The class given is functional.

Values joined by “and” are separate entries in the source; they are usually repeats but may differ in a detail not shown here. Equal values may be shown once. Where a name gives a salt, the structure may show the parent alone. Active and inactive are the calls of the source. A value given as a limit tells only on which side of the number the result lay.

Sequence of Interleukin-1 receptor-associated kinase 1 (P51617 whole entry): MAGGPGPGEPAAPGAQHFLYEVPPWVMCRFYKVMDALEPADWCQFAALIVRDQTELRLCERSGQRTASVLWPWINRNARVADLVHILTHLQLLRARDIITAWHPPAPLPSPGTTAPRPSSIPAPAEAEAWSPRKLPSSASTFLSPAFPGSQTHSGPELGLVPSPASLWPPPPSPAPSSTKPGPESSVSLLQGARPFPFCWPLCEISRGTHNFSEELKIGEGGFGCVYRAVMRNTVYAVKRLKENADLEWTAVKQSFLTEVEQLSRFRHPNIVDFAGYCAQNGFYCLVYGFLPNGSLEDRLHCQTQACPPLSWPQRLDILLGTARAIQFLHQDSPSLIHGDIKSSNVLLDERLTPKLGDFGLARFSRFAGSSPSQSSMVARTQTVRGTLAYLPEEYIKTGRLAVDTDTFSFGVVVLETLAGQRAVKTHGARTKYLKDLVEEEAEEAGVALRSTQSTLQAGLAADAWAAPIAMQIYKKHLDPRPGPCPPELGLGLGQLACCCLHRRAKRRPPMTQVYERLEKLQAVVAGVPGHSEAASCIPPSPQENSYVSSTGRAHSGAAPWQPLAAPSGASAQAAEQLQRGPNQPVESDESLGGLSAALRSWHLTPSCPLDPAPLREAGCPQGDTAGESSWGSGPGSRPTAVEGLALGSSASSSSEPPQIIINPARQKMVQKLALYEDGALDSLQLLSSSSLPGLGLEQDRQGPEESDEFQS
Sequence of Interleukin-1 receptor-associated kinase 4 (Q9NWZ3 whole entry): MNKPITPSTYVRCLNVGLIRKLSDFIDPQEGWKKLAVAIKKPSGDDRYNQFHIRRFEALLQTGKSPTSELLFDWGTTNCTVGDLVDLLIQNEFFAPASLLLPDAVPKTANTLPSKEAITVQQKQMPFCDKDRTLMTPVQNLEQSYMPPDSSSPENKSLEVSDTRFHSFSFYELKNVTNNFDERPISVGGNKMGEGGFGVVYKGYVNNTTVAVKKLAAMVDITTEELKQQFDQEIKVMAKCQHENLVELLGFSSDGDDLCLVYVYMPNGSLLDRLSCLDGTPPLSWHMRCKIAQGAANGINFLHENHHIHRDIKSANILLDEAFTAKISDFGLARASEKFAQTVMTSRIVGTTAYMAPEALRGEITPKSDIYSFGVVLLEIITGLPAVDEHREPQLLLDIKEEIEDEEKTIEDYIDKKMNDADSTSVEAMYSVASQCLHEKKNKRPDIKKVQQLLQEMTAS
Sequence of Vascular endothelial growth factor receptor 3 (P35916 whole entry): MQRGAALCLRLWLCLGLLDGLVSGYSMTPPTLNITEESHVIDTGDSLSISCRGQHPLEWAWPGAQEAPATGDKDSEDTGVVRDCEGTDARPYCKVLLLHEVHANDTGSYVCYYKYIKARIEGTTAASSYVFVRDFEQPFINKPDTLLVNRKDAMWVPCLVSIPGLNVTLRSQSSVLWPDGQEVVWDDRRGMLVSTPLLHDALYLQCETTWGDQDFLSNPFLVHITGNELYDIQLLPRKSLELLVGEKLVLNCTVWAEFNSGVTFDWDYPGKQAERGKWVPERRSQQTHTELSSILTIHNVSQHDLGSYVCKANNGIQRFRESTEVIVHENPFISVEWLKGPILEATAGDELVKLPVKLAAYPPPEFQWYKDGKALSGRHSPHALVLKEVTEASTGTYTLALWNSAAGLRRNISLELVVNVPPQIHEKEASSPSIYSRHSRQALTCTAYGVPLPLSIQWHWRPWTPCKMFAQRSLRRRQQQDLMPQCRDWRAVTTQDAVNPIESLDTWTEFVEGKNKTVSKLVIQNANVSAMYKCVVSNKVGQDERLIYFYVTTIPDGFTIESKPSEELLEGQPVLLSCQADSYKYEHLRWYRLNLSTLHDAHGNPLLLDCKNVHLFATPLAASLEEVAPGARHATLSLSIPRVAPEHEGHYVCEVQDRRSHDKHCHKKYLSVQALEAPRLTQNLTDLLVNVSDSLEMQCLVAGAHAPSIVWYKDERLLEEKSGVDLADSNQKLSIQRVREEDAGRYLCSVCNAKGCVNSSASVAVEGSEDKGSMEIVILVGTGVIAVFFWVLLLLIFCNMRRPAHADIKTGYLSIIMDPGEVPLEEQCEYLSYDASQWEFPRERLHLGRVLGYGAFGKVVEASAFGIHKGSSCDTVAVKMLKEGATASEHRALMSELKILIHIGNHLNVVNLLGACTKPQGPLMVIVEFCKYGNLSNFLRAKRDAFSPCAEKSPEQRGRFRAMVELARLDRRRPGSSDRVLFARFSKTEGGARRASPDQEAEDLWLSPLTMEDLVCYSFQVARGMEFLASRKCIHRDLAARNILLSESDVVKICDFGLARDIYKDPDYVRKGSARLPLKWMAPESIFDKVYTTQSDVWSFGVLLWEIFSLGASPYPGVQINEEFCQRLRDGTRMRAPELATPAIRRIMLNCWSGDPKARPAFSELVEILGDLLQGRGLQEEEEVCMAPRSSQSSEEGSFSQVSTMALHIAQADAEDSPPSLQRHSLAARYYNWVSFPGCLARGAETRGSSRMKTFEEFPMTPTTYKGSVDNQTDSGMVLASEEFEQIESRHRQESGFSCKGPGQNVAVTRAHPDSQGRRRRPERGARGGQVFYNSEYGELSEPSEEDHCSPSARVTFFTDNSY
Sequence of Misshapen-like kinase 1 (Q8N4C8 whole entry): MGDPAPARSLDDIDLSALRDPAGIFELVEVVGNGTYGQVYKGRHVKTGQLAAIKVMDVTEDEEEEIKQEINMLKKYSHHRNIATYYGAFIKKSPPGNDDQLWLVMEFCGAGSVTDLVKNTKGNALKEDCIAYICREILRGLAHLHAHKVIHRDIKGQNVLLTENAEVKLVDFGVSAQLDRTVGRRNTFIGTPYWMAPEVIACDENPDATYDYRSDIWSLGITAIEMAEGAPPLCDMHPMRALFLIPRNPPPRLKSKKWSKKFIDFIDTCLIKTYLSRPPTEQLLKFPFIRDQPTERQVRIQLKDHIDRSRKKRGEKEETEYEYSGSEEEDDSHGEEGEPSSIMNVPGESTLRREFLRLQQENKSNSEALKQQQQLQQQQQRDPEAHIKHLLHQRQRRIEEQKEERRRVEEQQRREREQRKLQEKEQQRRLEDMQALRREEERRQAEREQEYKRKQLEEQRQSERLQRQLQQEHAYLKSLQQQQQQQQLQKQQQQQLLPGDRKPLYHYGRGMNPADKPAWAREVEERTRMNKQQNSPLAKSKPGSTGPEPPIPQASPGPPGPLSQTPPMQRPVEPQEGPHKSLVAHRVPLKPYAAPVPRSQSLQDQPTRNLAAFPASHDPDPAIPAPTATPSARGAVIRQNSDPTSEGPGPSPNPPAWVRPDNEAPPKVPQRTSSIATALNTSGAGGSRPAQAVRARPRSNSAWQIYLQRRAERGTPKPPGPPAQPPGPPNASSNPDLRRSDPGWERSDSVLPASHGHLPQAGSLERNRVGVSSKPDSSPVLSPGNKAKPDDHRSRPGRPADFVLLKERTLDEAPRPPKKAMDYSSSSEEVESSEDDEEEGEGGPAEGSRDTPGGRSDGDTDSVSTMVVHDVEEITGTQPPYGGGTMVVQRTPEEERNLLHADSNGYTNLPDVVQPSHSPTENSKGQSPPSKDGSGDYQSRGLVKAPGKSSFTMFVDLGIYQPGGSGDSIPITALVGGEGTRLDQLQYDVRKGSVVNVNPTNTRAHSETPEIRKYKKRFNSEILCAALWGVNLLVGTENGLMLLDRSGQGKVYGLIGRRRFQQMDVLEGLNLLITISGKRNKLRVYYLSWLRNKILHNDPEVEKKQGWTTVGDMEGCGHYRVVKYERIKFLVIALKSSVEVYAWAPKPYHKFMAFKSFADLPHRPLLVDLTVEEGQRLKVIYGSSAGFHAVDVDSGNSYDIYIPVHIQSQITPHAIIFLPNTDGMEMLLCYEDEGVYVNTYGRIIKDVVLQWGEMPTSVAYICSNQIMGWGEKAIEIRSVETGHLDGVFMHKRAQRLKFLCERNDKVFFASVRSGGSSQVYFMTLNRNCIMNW
Sequence of Serine/threonine-protein kinase 3 (Q13188 whole entry): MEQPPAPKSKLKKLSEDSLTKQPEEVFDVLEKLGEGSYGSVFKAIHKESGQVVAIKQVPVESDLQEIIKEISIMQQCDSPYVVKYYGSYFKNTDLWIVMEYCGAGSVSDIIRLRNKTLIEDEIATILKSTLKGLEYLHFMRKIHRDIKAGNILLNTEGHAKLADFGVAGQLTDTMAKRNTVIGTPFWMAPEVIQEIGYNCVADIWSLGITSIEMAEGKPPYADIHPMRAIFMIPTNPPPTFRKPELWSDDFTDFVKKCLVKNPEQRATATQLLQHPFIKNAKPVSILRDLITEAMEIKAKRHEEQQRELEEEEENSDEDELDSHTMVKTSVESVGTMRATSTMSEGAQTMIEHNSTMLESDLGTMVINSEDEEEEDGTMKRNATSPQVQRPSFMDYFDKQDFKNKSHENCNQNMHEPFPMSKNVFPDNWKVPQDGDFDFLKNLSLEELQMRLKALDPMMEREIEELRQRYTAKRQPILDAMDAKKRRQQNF
Sequence of Mitogen-activated protein kinase 13 (O15264 whole entry): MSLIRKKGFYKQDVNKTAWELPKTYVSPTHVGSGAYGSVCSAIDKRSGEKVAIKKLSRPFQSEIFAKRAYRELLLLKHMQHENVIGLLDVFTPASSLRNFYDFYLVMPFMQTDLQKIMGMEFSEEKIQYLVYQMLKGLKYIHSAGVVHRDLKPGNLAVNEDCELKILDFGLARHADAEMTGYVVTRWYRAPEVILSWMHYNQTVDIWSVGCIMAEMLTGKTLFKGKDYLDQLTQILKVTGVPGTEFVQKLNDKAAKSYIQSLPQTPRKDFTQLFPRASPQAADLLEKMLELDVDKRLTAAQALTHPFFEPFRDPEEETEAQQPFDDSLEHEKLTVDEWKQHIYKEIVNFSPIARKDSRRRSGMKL
Sequence of Casein kinase I isoform alpha (P48729 whole entry, canonical isoform): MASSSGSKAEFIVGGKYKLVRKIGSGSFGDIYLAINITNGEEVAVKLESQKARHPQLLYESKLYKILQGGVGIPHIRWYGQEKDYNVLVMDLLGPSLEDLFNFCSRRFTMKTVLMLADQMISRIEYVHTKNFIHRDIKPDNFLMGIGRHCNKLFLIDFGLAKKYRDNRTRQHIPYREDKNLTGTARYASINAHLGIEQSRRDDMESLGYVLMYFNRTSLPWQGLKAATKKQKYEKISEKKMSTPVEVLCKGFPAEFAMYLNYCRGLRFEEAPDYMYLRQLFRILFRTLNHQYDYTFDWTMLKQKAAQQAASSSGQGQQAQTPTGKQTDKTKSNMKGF

Regarding `CN1CCN(c2nc(C3=C(c4c[nH]c5ccccc45)C(=O)NC3=O)c3ccccc3n2)CC1` [SOTRASTAURIN], the Ki was > 2 µM (inactive) in assay [1]; > 2.51 µM (inactive) in assay [2]; > 3.16 µM (inactive) in assay [3]; > 3.16 µM (inactive) in [4]; > 3.98 µM (inactive) in [5]; > 5.01 µM (inactive) in [6]. Further, the Ki in assay [7] was > 6.31 µM (inactive); in [8] it was > 7.94 µM (inactive); in [9], 0.0126 µM (active); in [10] it was > 2 µM (inactive); on Misshapen-like kinase 1, 0.00794 µM (active); in assay [11] it was > 2.51 µM (inactive). For the same compound, the Ki in assay [12] is > 7.94 µM (inactive); in assay [13] it was > 10 µM (inactive); in assay [14], 0.316 µM (active); in assay [15], 0.00158 µM (active); in assay [16], > 3.98 µM (inactive); in assay [17], > 1.26 µM (inactive). The Ki is > 10 µM (inactive) in assay [18], 2.51 µM (active) in assay [19] and 0.126 µM (active) in assay [20].
`CC[C@@H](CO)NC(=O)[C@@H]1C=C2c3cccc4c3c(cn4C)C[C@H]2N(C)C1` [METHYSERGIDE MALEATE]: in [21], the EC50 was 10.3 µM (active) and 14.3 µM (active).
Consider `CCCCCCCCCCOC(=O)C[n+]1c(COc2ccc(C)cc2)n(C)c2ccccc21`, for which the EC50 at Streptokinase A was > 150 µM (not active); in the assay on Streptococcus, 7.92 µM (active); with HEK293, > 55.9 µM (inactive). Moreover, the AC50 is 3.4 µM (active) in the assay on INS1 and 9.47 µM (active) in [22].
Consider `CCN1/C(=C\c2ccc3ccccc3[n+]2CC)Sc2cc(C)ccc21`, for which the EC50 in the assay on H4 is reported as > 120 µM (not active); in assay [23], > 12 µM (not active).

A word on the Ki: it is a dissociation constant, usually derived from enzyme kinetics or from competition with a known ligand. One may read the EC50 as the concentration at which the effect is half-maximal. The AC50 is the concentration giving half of the maximal activity seen.
